Experimental data from BindingDB's records for doi:10.1016/j.bmc.2010.11.049 (Bryn Mawr College, 2011).
pIC50: −log10 of the molar value.

Test: Inhibition of HIV1 YU2 gp120 binding to CD4 expressing Cf2Th-CD4/CCR5 cells assessed as inhibition of viral infection after 48 hrs

Row | SMILES | pIC50
1 | CC1(C)CC(NC(=O)C(=O)Nc2c[nH]c3ncccc23)CC(C)(C)N1 [N1-(1H-pyrrolo[2,3-b]pyridin-3-yl)-N2-(2,2,6,6-tetramethylpiperidin-4-yl)oxalamide] | < 4.00
2 | CC1(C)CC(NC(=O)C(=O)Nc2ccc(Cl)c(F)c2)CC(C)(C)N1 [N1-(4-chloro-3-fluorophenyl)-N2-(2,2,6,6-tetramethylpiperidin-4-yl)oxalamide] | 4.13
3 | O=C(Nc1ccc(Cl)c(F)c1)C(=O)Nc1cnn2c1NCCC2 [N1-(4-chloro-3-fluorophenyl)-N2-(4,5,6,7-tetrahydropyrazolo[1,5-a]pyrimidin-3-yl)oxalamide] | < 4.00
4 | CCCN1CCC(NC(=O)C(=O)Nc2ccc(Cl)c(F)c2)CC1 [N1-(4-chloro-3-fluorophenyl)-N2-(1-propylpiperidin-4-yl)oxalamide] | < 4.00
5 | O=C(NCC1NCCc2ccccc21)C(=O)Nc1ccc(Cl)c(F)c1 (centres undefined) [N1-(4-chloro-3-fluorophenyl)-N2-((1,2,3,4-tetrahydroisoquinolin-1-yl)methyl)oxalamide] | 4.30
6 | COc1cccc(N[C@@H](C)C(=O)Nc2ccc(Br)cc2)c1 [(S)-N-(4-bromophenyl)-2-(3-methoxyphenylamino)propanamide] | < 4.00
7 | N=c1oc2cc(O)ccc2cc1C(=O)Nc1ccc(Cl)cc1 [N-(4-chlorophenyl)-7-hydroxy-2-imino-2H-chromene-3-carboxamide] | < 4.00
8 | CC1(C)CC(NC(=O)C(=O)Nc2ccc3ccccc3c2)CC(C)(C)N1 [N1-(naphthalen-2-yl)-N2-(2,2,6,6-tetramethylpiperidin-4-yl)oxalamide] | < 4.00
9 | Cc1n[nH]c(C)c1CNC(=O)C(=O)Nc1ccc(Cl)c(F)c1 [N1-(4-chloro-3-fluorophenyl)-N2-((3,5-dimethyl-1H-pyrazol-4-yl)methyl)oxalamide] | 4.19
10 | CC1(C)CC(NC(=O)C(=O)Nc2ccc(-n3cc(CCCCCO)nn3)cc2)CC(C)(C)N1 [N1-(4-(4-(5-hydroxypentyl)-1H-1,2,3-triazol-1-yl)phenyl)-N2-(2,2,6,6-tetramethylpiperidin-4-yl)oxalamide] | < 4.00
11 | CC1CCCN(CCC(=O)Nc2ccc(Br)cc2)C1 (centres undefined) [N-(4-bromophenyl)-3-(3-methylpiperidin-1-yl)propanamide] | < 4.00
12 | CC(C)N1CCC(NC(=O)C(=O)Nc2ccc(Cl)c(F)c2)CC1 [N1-(4-chloro-3-fluorophenyl)-N2-(1-isopropylpiperidin-4-yl)oxalamide] | < 4.00
13 | CC1(C)CC(NC(=O)C(=O)Nc2ccc(Cl)c(OCc3ccccc3)c2)CC(C)(C)N1 [N1-(3-(benzyloxy)-4-chlorophenyl)-N2-(2,2,6,6-tetramethylpiperidin-4-yl)oxalamide] | < 4.00
14 | O=C(NC[C@@H]1CCCN2CCCC[C@H]12)C(=O)Nc1ccc(Cl)c(F)c1 [N1-(4-chloro-3-fluorophenyl)-N2-(((1S,9aR)-octahydro-1H-quinolizin-1-yl)methyl)oxalamide] | < 4.00
15 | Nc1ccc(C(=O)CC(=O)Nc2ccc(Cl)cc2)cc1 [3-(4-aminophenyl)-N-(4-chlorophenyl)-3-oxopropanamide] | < 4.00
16 | CN1CCN(C(CNC(=O)C(=O)Nc2ccc(Cl)c(F)c2)c2ccccc2Cl)CC1 (centres undefined) [N1-(4-chloro-3-fluorophenyl)-N2-(2-(2-chlorophenyl)-2-(4-methylpiperazin-1-yl)ethyl)oxalamide] | 4.13
17 | CC1(C)CC(NC(=O)C(=O)Nc2ccc(Cl)cc2OCc2ccccc2)CC(C)(C)N1 [N1-(2-(benzyloxy)-4-chlorophenyl)-N2-(2,2,6,6-tetramethylpiperidin-4-yl)oxalamide] | < 4.00

Row | SMILES | pIC50
18 | CN1C(C)(C)CC(NC(=O)C(=O)Nc2ccc(Cl)c(F)c2)CC1(C)C [N1-(4-chloro-3-fluorophenyl)-N2-(1,2,2,6,6-pentamethylpiperidin-4-yl)oxalamide] | 4.18
19 | O=C(Nc1ccc2c(c1)C(=O)NC2=O)c1ccc(Cl)c(Cl)c1 [3,4-dichloro-N-(1,3-dioxoisoindolin-5-yl)benzamide] | < 4.00
20 | CCNC(=S)N1CCN(CC(=O)Nc2ccc(Br)cc2)CC1 [4-(2-(4-bromophenylamino)-2-oxoethyl)-N-ethylpiperazine-1-carbimidothioic acid] | < 4.00
21 | O=C(CSCc1cc(=O)[nH][nH]1)Nc1ccc(Br)cc1 [N-(4-bromophenyl)-2-((5-hydroxy-1H-pyrazol-3-yl)methylthio)acetamide] | < 4.00
22 | CC(NC(=O)C(=O)Nc1ccc(Cl)c(F)c1)C(c1ccccc1Cl)N1CCOCC1 (centres undefined) [N1-(4-chloro-3-fluorophenyl)-N2-(1-(2-chlorophenyl)-1-morpholinopropan-2-yl)oxalamide] | < 4.00
23 | CC1(C)CC(NC(=O)CC(=O)Nc2ccc(Br)cc2)CC(C)(C)N1 [N1-(4-bromophenyl)-N3-(2,2,6,6-tetramethylpiperidin-4-yl)malonamide] | < 4.00
24 | CC1CCCCN1C(C)CNC(=O)C(=O)Nc1ccc(Cl)c(F)c1 (centres undefined) [N1-(4-chloro-3-fluorophenyl)-N2-(2-(2-methylpiperidin-1-yl)propyl)oxalamide] | < 4.00
25 | O=C(NCC1CCCN(CCO)C1)C(=O)Nc1ccc(Cl)c(F)c1 (centres undefined) [N1-(4-chloro-3-fluorophenyl)-N2-((1-(2-hydroxyethyl)piperidin-3-yl)methyl)oxalamide] | 4.56
26 | O=C(Nc1ccc(Cl)c(F)c1)C(=O)NC1CCc2[nH]ncc2C1 (centres undefined) [N1-(4-chloro-3-fluorophenyl)-N2-(4,5,6,7-tetrahydro-1H-indazol-5-yl)oxalamide] | < 4.00
27 | O=C(NCC1CCNCC1)C(=O)Nc1ccc(Cl)c(F)c1 [N1-(4-chloro-3-fluorophenyl)-N2-(piperidin-4-ylmethyl)oxalamide] | < 4.00
28 | O=C(Nc1ccc(Cl)c(F)c1)C(=O)NC1CCN(C(=O)c2ccccc2)CC1 [N1-(1-benzoylpiperidin-4-yl)-N2-(4-chloro-3-fluorophenyl)oxalamide] | < 4.00
29 | CC1(C)OC(=O)N(CCC(=O)Nc2ccc(Cl)cc2)[C@@]1(C)O [(S)-N-(4-chlorophenyl)-3-(4-hydroxy-4,5,5-trimethyl-2-oxooxazolidin-3-yl)propanamide] | < 4.00
30 | CC1(C)CC(NC(=O)CCC(=O)Nc2ccc(Br)cc2)CC(C)(C)N1 [N1-(4-bromophenyl)-N4-(2,2,6,6-tetramethylpiperidin-4-yl)succinamide] | < 4.00
31 | O=C(Nc1ccc(Cl)c(F)c1)C(=O)N[C@H]1CCN(Cc2ccccc2)C1 [(S)-N1-(1-benzylpyrrolidin-3-yl)-N2-(4-chloro-3-fluorophenyl)oxalamide] | < 4.00
32 | CN1CCCC(NC(=O)C(=O)Nc2ccc(Cl)c(F)c2)C1 (centres undefined) [N1-(4-chloro-3-fluorophenyl)-N2-(1-methylpiperidin-3-yl)oxalamide] | < 4.00
33 | C[C@H](Sc1nc(N)cc(N)n1)C(=O)Nc1ccc(Cl)cc1 [(S)-N-(4-chlorophenyl)-2-(4,6-diaminopyrimidin-2-ylthio)propanamide] | < 4.00
34 | CC(C)c1ccccc1NC(=O)C(=O)NC1CC(C)(C)NC(C)(C)C1 [N1-(2-isopropylphenyl)-N2-(2,2,6,6-tetramethylpiperidin-4-yl)oxalamide] | < 4.00
